According to patent US5302621A, “Azasteroid compounds for the treatment of prostatic hypertrophy, their preparation and use” (Sankyo Company, Limited, priority 1990, dated 1994):

System: rat 5α-reductase
Test: Assay of Rat 5α-reductase Inhibition
Assay type: biochemical, rat (Sprague-Dawley)
Details: 10^-8 M test compound; rat prostate 5α-reductase, 1 μM [14C] testosterone, pH 6.5, 37° C., 15 to 30 minutes
Description: The prostatic lobes of a mature male rat (body weight 350-450 g, Sprague-Dawley strain) were cut into small pieces with scissors. About three parts by weight of a buffer solution [20 mM potassium phosphate buffer solution (ph 7.4) containing 0.33M sucrose, 1 mM dithiothreitol, 50 μM nicotinamide adenine dinucleotide phosphate-reduced form (NADPH) and 0.001% PMSF (phenylmethyl sulfonyl fluoride)] were added to one part by weight of the tissue pieces, and the mixture was homogenized first by means of a Polytron (trade mark, KINEMATICA GmbH) homogenizer, and then by means of a Teflon (trade mark) glass homogenizer. The prostatic tissue suspension thus homogenized was then centrifuged (140000×g, 60 minutes) to separate the precipitate.
About three parts by weight of the buffer solution described above were added to one part of the precipitate to suspend it, and the suspension was centrifuged again (140000×g, 60 minutes) to wash it and separate a precipitate, which was regarded as a rat 5α-reductase preparation. Sufficient of the buffer solution described above was added to this precipitate for the protein content of the solution to become between 20 and 40 mg/ml. The solution was frozen and stored at -80° C. The protein content was determined by a Bio-Rad protein assay in which bovine γ-globulin (Cohn Fraction II, Sigma) was used as the protein standard.
5 μl of a dimethyl sulfoxide or ethanol solution in which a test compound to be tested was dissolved were added to 0.5 ml of a 40 mM potassium phosphate buffer solution (pH 6.5) containing rat 5α-reductase (protein content, 1 mg), 1 μM [^14 C] testosterone, 1 mM dithiothreitol and 500 μM NADPH (final concentration 10^-8 M of the test compound), and incubated for 15 to 30 minutes at 37° C. As a control, only the solvent was added to one sample. 2 ml of ethyl acetate containing 10 μg each of testosterone, 5α-dihydrotestosterone and androstenedione were then added to stop the reaction. The mixture was centrifuged (1400×g, 5 minutes). The ethyl acetate layer was separated and transferred to another test tube, where it was evaporated to dryness whilst spraying it with nitrogen gas. The steroids were dissolved in 40 μl of ethyl acetate. The solution was spotted on a thin layer chromatographic plate (LK5DF silica plate, Whatman), and developed with a mixture of ethyl acetate with cyclohexane (1:1 by volume) twice at room temperature. The steroid fraction was identified by color development by ultraviolet radiation or by heating with a […]/10% sulfuric acid solution. The radioactivity on the thin layer chromatographic plate was measured by means of a bio-image analyzer (Fuji Film Co. Ltd.). The enzyme activity was given by the amount [conversion rate (%)] of [^14 C] 5α-dihydro-testosterone which was converted from the [^14 C] testosterone initially added. The rat 5α-reductase inhibiting activity of a test sample was calculated from the following equation: [formula]

Row | SMILES | Rat 5α-reductase inhibiting activity: Inhibiting activity (%)
1 | CN1C(=O)CC[C@]2(C)[C@H]3CC[C@]4(C)[C@@H](C(=O)NC(C)(C)c5ccccc5)CC[C@H]4[C@@H]3CC[C@@H]12 [Example No. 40, N-(1-Methyl-1-phenylethyl)-4-methyl-3-oxo-4-aza-5α-androstane-17β-carboxamide] | 88.6
2 | C[C@]12CC[C@H]3[C@@H](CC=C4NC(=O)CC[C@@]43C)[C@@H]1CC[C@@H]2C(=O)NC(Cc1ccccc1)c1ccccc1 (stereo partly drawn) [Example No. 12, N-(1,2-Diphenylethyl)-3-oxo-4-azaandrost-5-ene-17β-carboxamide] | 78.4
3 | C[C@]12CCC(=O)N[C@@H]1CC[C@@H]1[C@@H]2CC[C@]2(C)[C@@H](C(=O)N(Cc3ccccc3)Cc3ccccc3)CC[C@@H]12 [Example No. 4, N,N-Dibenzyl-3-oxo-4-aza-5α-androstane-17β-carboxamide] | 74.1
4 | CC(C)(NC(=O)[C@H]1CC[C@H]2[C@@H]3CC[C@H]4NC(=O)CC[C@]4(C)[C@H]3CC[C@]12C)c1ccccc1 [Example No. 37, N-(1-Methyl-1-phenylethyl)-3-oxo-4-aza-5α-androstane-17β-carboxamide] | 82.2
5 | CN1C(=O)CC[C@]2(C)[C@H]3CC[C@]4(C)[C@@H](C(=O)NC(c5ccccc5)c5ccccc5)CC[C@H]4[C@@H]3CC[C@@H]12 [Example No. 20, N-(Diphenylmethyl)-4-methyl-3-oxo-4-aza-5α-androstane-17β-carboxamide] | 86.7
6 | COc1ccc(C(C)(C)NC(=O)[C@H]2CC[C@H]3[C@@H]4CC[C@H]5NC(=O)C=C[C@]5(C)[C@H]4CC[C@]23C)cc1 [Example No. 44, N-[1-(4-Methoxyphenyl)-1-methylethyl]-3-oxo-4-aza-5α-androst-1-ene-17β-carboxamide] | 73.2
7 | C[C@]12CCC(=O)N[C@@H]1CC[C@@H]1[C@@H]2CC[C@]2(C)[C@@H](C(=O)NC(Cc3ccccc3)c3ccccc3)CC[C@@H]12 (stereo partly drawn) [Example No. 3, N-(1,2-Diphenylethyl)-3-oxo-4-aza-5α-androstane-17β-carboxamide] | 89.1
8 | CC(C)(C)NC(=O)C1CCC2C3CCC4NC(=O)C=CC4(C)C3CCC12C (centres unmarked) [Compound A2, reference compound] | 30.0
9 | CN1C(=O)CC[C@@]2(C)C1=CC[C@H]1[C@@H]3CC[C@H](C(=O)NC(C)(C)c4ccccc4)[C@@]3(C)CC[C@@H]12 [Example No. 42, N-(1-Methyl-1-phenylethyl)-4-methyl-3-oxo-4-aza-androst-5-ene-17β-carboxamide] | 72.3
10 | Cc1ccc(C[C@H](NC(=O)[C@H]2CC[C@H]3[C@@H]4CC[C@H]5NC(=O)CC[C@]5(C)[C@H]4CC[C@]23C)c2ccccc2)cc1 [Example No. 62, N-[(S)-2-(4-Methylphenyl)-1-phenylethyl]-3-oxo-4-aza-5α-androstane-17β-carboxamide] | 90.1
11 | C[C@]12C=CC(=O)N[C@@H]1CC[C@@H]1[C@@H]2CC[C@]2(C)[C@@H](C(=O)NN(c3ccccc3)c3ccccc3)CC[C@@H]12 [Example No. 65, N,N-Diphenyl-3-oxo-4-aza-5α-androst-1-ene-17β-carbohydrazide] | 80.0
12 | CN1C(=O)CC[C@]2(C)[C@H]3CC[C@]4(C)[C@@H](C(=O)NC(C)(c5ccccc5)c5ccccc5)CC[C@H]4[C@@H]3CC[C@@H]12 [Example No. 26, N-(1,1-Diphenylethyl)-4-methyl-3-oxo-4-aza-5α-androstane-17β-carboxamide] | 87.3
13 | C[C@]12C=CC(=O)N[C@@H]1CC[C@@H]1[C@@H]2CC[C@]2(C)[C@@H](C(=O)NC(Cc3ccccc3)c3ccccc3)CC[C@@H]12 (stereo partly drawn) [Example No. 8, N-(1,2-Diphenylethyl)-3-oxo-4-aza-5α-androst-1-ene-17β-carboxamide] | 74.6
14 | C[C@]12CCC(=O)N[C@@H]1CC[C@@H]1[C@@H]2CC[C@]2(C)[C@@H](C(=O)NC(c3ccccc3)c3ccccc3)CC[C@@H]12 [Example No. 1, N-(Diphenylmethyl)-3-oxo-4-aza-5α-androstane-17β-carboxamide] | 89.2
15 | C[C@]12C=CC(=O)N[C@@H]1CC[C@@H]1[C@@H]2CC[C@]2(C)[C@@H](C(=O)N[C@H](c3ccccc3)[C@@H](O)c3ccccc3)CC[C@@H]12 [Example No. 73, N-[(1R,2S)-2-Hydroxy-1,2-diphenylethyl]-3-oxo-4-aza-5α-androst-1-ene-17β-carboxamide] | 80.5

System: testosterone 5α-reductase
Test: not given
Details: background, U.S. Pat. No. 4,179,453 and 4,760,071; cited from earlier work

Row | SMILES | 5α-reductase inhibitory activity of prior-art compounds, in words
16 | CCN(CC)C(=O)C1CCC2C3CCC4NC(=O)C=CC4(C)C3CCC12C (centres unmarked) [Compound A1] | quite a potent activity
17 | CC(C)(C)NC(=O)C1CCC2C3CCC4NC(=O)C=CC4(C)C3CCC12C (centres unmarked) [Compound A2, reference compound] | quite a potent activity
